Test system: TFEB
Test: TFEB nuclear translocation assay, HeLa wt cells
Format: cell-based
Settings: 2 hrs compound treatment, Table 1 does not say HeLa wt or TRPML1 KO
Outline: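 HeLa wt, 2 hr compound, 37° C; 4% PFA fix; anti-TFEB (rabbit, 1:200, overnight 4° C) + Alexa 488 secondary, Hoechst. Imaged ×20, 4 fields/well. Readout: nuclear/ring Alexa 488 intensity ratio; AC50.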

Row | Compound | AC50 (Homo sapiens, HeLa, 2 h) [µM] | AC50 [µM]
1 | COc1ccc(S(=O)(=O)Nc2ccncc2N2CCC(c3ncc(F)cc3F)CC2)cc1 [Compound A-192, N-{3-[4-(3,5-difluoropyridin-2-yl)piperidin-1-yl]pyridin-4-yl}-4-methoxybenzene-1-sulfonamide] | ≥ 10 | –
2 | COc1ccc(S(=O)(=O)Nc2ccccc2N2CC(N(C)c3ccc(F)cc3F)C2)cc1 [Compound A-188, N-(2-{3-[(2,4-difluorophenyl)(methyl)amino]azetidin-1-yl}phenyl)-4-methoxybenzene-1-sulfonamide] | ≥ 10 | –
3 | CN(C)S(=O)(=O)c1ccc(S(=O)(=O)Nc2ccccc2N2CCC(O)(c3ccncc3F)CC2)cc1 [Compound A-401, N4-{2-[4-(3-fluoropyridin-4-yl)-4-hydroxypiperidin-1-yl]phenyl}-N1,N1-dimethylbenzene-1,4-disulfonamide] | ≥ 10 | –
4 | C[C@@H]1CN(CC2CCN(c3c(F)cccc3[C@@H](C)S(=O)(=O)c3ccc(S(=N)(=O)N(C)C)cc3)CC2)C[C@H](C)O1 (single isomer, unassigned) [Compound A-903] | – | ≥ 10
5 | CN(C)S(=O)(=O)c1ccc(S(=O)(=O)Nc2cccc(N3CCC(c4ccc(Cl)cc4F)CC3)c2)cc1 [Compound A-46, N4-{3-[4-(4-chloro-2-fluorophenyl)piperidin-1-yl]phenyl}-N1,N1-dimethylbenzene-1,4-disulfonamide] | ≥ 10 | –
6 | Cc1cnc(N2CCC(CN3CCC(F)(F)CC3)CC2)c(C(C)S(=O)(=O)c2ccc(S(=O)(=O)N(C)C)cc2)c1 (single isomer, unassigned) [Compound A-995, 4-((1-(2-(4-((4,4-difluoropiperidin-1-yl)methyl)piperidin-1-yl)-5-methylpyridin-3-yl)ethyl)sulfonyl)-N,N-dimethylbenzenesulfonamide] | – | ≥ 10
7 | CN(C)S(=O)(=O)c1ccc(S(=O)(=O)Nc2cccc(F)c2N2CCC(CN3CCC(F)(F)C3)CC2)cc1 [Compound A-774, N4-(2-{4-[(3,3-difluoropyrrolidin-1-yl)methyl]piperidin-1-yl}-3-fluorophenyl)-N1,N1-dimethylbenzene-1,4-disulfonamide] | ≤ 2 | –
8 | CCC(C)(C)CC(=O)N1CCN(c2ccccc2NS(=O)(=O)c2ccc(S(=O)(=O)N(C)C)cc2)CC1 [Compound A-426, N4-{2-[4-(3,3-dimethylpentanoyl)piperazin-1-yl]phenyl}-N1,N1-dimethylbenzene-1,4-disulfonamide] | ≤ 2 | –
9 | CN(C)S(=O)(=O)c1ccc(S(=O)(=O)Nc2ccccc2N2CCCC3(CCCO3)C2)cc1 (stereo not shown) [Compound A-497, N1,N1-dimethyl-N4-(2-{1-oxa-7-azaspiro[4.5]decan-7-yl}phenyl)benzene-1,4-disulfonamide] | ≤ 2 | –
10 | O=S(=O)(Nc1ccccc1N1CCC(c2ccc(Cl)cc2F)CC1)c1ccc(F)cc1 [Compound A-74, N-{2-[4-(4-chloro-2-fluorophenyl)piperidin-1-yl]phenyl}-4-fluorobenzene-1-sulfonamide] | 2.01 to 8 | –
11 | CN(C)S(=O)(=O)c1ccc(S(=O)(=O)Nc2ccccc2N2CCC(C)(CO)CC2)cc1 [Compound A-436, N4-{2-[4-(hydroxymethyl)-4-methylpiperidin-1-yl]phenyl}-N1,N1-dimethylbenzene-1,4-disulfonamide] | 2.01 to 8 | –
12 | CC(C)(C)S(=O)(=O)c1ccc(S(=O)(=O)Nc2cc(Cl)ccc2N2CCOCC2)cc1 [Compound A-276, N-[5-chloro-2-(morpholin-4-yl)phenyl]-4-(2-methylpropane-2-sulfonyl)benzene-1-sulfonamide] | ≥ 10 | –
13 | CN(C)S(=O)(=O)c1ccc(S(=O)(=O)Nc2cc(Cl)ccc2N2CCOCC2)cc1 [Compound A-290, N4-[5-chloro-2-(morpholin-4-yl)phenyl]-N1,N1-dimethylbenzene-1,4-disulfonamide] | ≥ 10 | –
14 | CC(c1cccc(F)c1N1CCOCC1)S(=O)(=O)c1ccc2c(c1)CCS2(=O)=O (single isomer, unassigned) [Compound A-967, 5-((1-(3-fluoro-2-morpholinophenyl)ethyl)sulfonyl)-2,3-dihydrobenzo[b]thiophene 1,1-dioxide] | – | ≥ 10
15 | C[C@@H](c1cccc(F)c1N1CCC(F)(F)CC1)S(=O)(=O)c1ccc(S(=N)(=O)N(C)C)cc1 (single isomer, unassigned) [Compound A-936] | ≤ 2 | –
16 | CC1(C)CC2(CCN(c3ccccc3NS(=O)(=O)Cc3ccc(C(F)F)cc3)CC2)CO1 [Compound A-716, 1-[4-(difluoromethyl)phenyl]-N-(2-{3,3-dimethyl-2-oxa-8-azaspiro[4.5]decan-8-yl}phenyl)methanesulfonamide] | 2.01 to 8 | –
17 | CN(C)S(=O)(=O)c1ccc(S(=O)(=O)Nc2ccccc2N2CCC(O)(c3ccccc3)CC2)cc1 [Compound A-148, N4-[2-(4-hydroxy-4-phenylpiperidin-1-yl)phenyl]-N1,N1-dimethylbenzene-1,4-disulfonamide] | ≤ 2 | –

Row | Compound | AC50 (Homo sapiens, HeLa, 2 h) [µM] | AC50 [µM]
18 | CC1(C)CC2(CCN(c3ccccc3NS(=O)(=O)c3ccc4c(c3)OC(C)(C)C4)CC2)CO1 [Compound A-720, N-(2-{3,3-dimethyl-2-oxa-8-azaspiro[4.5]decan-8-yl}phenyl)-2,2-dimethyl-2,3-dihydro-1-benzofuran-6-sulfonamide] | 2.01 to 8 | –
19 | O=S(=O)(Nc1ccccc1N1CCC(c2ccc(Cl)cc2F)CC1)c1ccc(C(F)(F)F)cc1F [Compound A-159, N-{2-[4-(4-chloro-2-fluorophenyl)piperidin-1-yl]phenyl}-2-fluoro-4-(trifluoromethyl)benzene-1-sulfonamide] | 2.01 to 8 | –
20 | CC1(C)CC2(CCN(c3ccccc3NS(=O)(=O)Cc3cccc(F)c3)CC2)CO1 [Compound A-668, N-(2-{3,3-dimethyl-2-oxa-8-azaspiro[4.5]decan-8-yl}phenyl)-1-(3-fluorophenyl)methanesulfonamide] | 2.01 to 8 | –
21 | COCC1(C)CCN(c2ccccc2NS(=O)(=O)c2cccc(C3CC3)c2)CC1 [Compound A-643, 3-cyclopropyl-N-{2-[4-(methoxymethyl)-4-methylpiperidin-1-yl]phenyl}benzene-1-sulfonamide] | ≤ 2 | –
22 | CN(C)S(=O)(=O)c1ccc(S(=O)(=O)N2CCN(C3CCN(c4ccc(Cl)cc4F)CC3)C2=O)cc1 [Compound A-86, 4-((3-(1-(4-chloro-2-fluorophenyl)piperidin-4-yl)-2-oxoimidazolidin-1-yl)sulfonyl)-N,N-dimethylbenzenesulfonamide] | ≥ 10 | –
23 | COC(C)(C)C(=O)N1CCN(c2ccccc2NS(=O)(=O)c2ccc(S(=O)(=O)N(C)C)cc2)CC1 [Compound A-431, N4-{2-[4-(2-methoxy-2-methylpropanoyl)piperazin-1-yl]phenyl}-N1,N1-dimethylbenzene-1,4-disulfonamide] | 2.01 to 8 | –
24 | CN(C)S(=O)(=O)c1ccc(S(=O)(=O)Nc2ccccc2N2CCN(c3ncccc3F)CC2)cc1 [Compound A-51, N4-{2-[4-(3-fluoropyridin-2-yl)piperazin-1-yl]phenyl}-N1,N1-dimethylbenzene-1,4-disulfonamide] | 2.01 to 8 | –
25 | COCC1(C)CCN(c2ccccc2NS(=O)(=O)c2ccc3c(c2)OC(C)(C)O3)CC1 [Compound A-721, N-{2-[4-(methoxymethyl)-4-methylpiperidin-1-yl]phenyl}-2,2-dimethyl-2H-1,3-benzodioxole-5-sulfonamide] | ≤ 2 | –
26 | O=S(=O)(Nc1cccc(Cl)c1N1CCOCC1)c1cccc(C2CC2)c1 [Compound A-390, N-[3-chloro-2-(morpholin-4-yl)phenyl]-3-cyclopropylbenzene-1-sulfonamide] | ≤ 2 | –
27 | CN(C)S(=O)(=O)c1ccc(S(=O)(=O)Nc2ccccc2N2CCC(C3CC3(F)F)CC2)cc1 (stereo not shown) [Compound A-479, N4-{2-[4-(2,2-difluorocyclopropyl)piperidin-1-yl]phenyl}-N1,N1-dimethylbenzene-1,4-disulfonamide] | ≤ 2 | –
28 | O=C(Nc1cccc(Cl)c1N1CCOCC1)c1ccc2c(c1)CCC2 [Compound A-366, N-[3-chloro-2-(morpholin-4-yl)phenyl]-2,3-dihydro-1H-indene-5-carboxamide] | ≥ 10 | –
29 | Cn1cnc(S(=O)(=O)Nc2ccccc2N2CCN(c3ccc(Cl)cc3F)CC2)c1 [Compound A-2, N-{2-[4-(4-chloro-2-fluorophenyl)piperazin-1-yl]phenyl}-1-methyl-1H-imidazole-4-sulfonamide] | ≤ 2 | –
30 | CN(C)S(=O)(=O)c1ccc(S(=O)(=O)Nc2nc(N3CCN(c4ccc(Cl)cc4F)CC3)n(C)n2)cc1 [Compound A-59, N1-(5-(4-(4-chloro-2-fluorophenyl)piperazin-1-yl)-1-methyl-1H-1,2,4-triazol-3-yl)-N4,N4-dimethylbenzene-1,4-disulfonamide] | ≥ 10 | –
31 | COCCN1CC2(CCN(c3ccccc3NS(=O)(=O)c3ccc(S(C)(=O)=O)cc3)CC2)c2ccc(F)cc21 [Compound A-466, N-{2-[6-fluoro-1-(2-methoxyethyl)-1,2-dihydrospiro[indole-3,4′-piperidin]-1′-yl]phenyl}-4-methanesulfonylbenzene-1-sulfonamide] | ≤ 2 | –
32 | C[C@H](c1cccc(F)c1N1CCC(C2(N3CCOCC3)CC2)CC1)S(=O)(=O)c1ccc(S(=N)(=O)N(C)C)cc1 (single isomer, unassigned) [Compound A-893] | – | ≥ 10
33 | CC(c1cccc(F)c1N1CCC(CN2C3COCC2C3)CC1)S(=O)(=O)c1ccc(S(=O)(=O)N(C)C)cc1 (stereo not shown) [Compound A-870, 4-((1-(2-(4-((3-oxa-6-azabicyclo[3.1.1]heptan-6-yl)methyl)piperidin-1-yl)-3-fluorophenyl)ethyl)sulfonyl)-N,N-dimethylbenzenesulfonamideformate] | – | ≥ 10
34 | O=S(=O)(Nc1cc(Cl)ccc1N1CC2(CCC2)OC2(CCC2)C1)c1ccc2c(c1)CCC2 [Compound A-396, N-(5-chloro-2-{5-oxa-11-azadispiro[3.1.3^6.3^4]dodecan-11-yl}phenyl)-2,3-dihydro-1H-indene-5-sulfonamide] | ≤ 2 | –
